Here are results for 5 molecules from publication PMC7203344, “Sirtuin 1 Inhibiting Thiocyanates (S1th)—A New Class of Isotype Selective Inhibitors of NAD^+ Dependent Lysine Deacetylases” (Frontiers in Oncology, 2020).

One assay concerns the target HDAC1 (Homo sapiens, UniProt Q13547). Nature of the assay: Homogeneous ZMAL-based fluorescence assay for HDAC1. It is filed as biochemical. As for the experimental part: The inhibition of HDAC1 and 6 by the S1th and PR-619 was determined via the ZMAL-assay according to the same general procedure described for sirtuins (2.2.1). 5 μL substrate (10.5 μM final assay concentration) were mixed with 3 μL of inhibitor in DMSO or DMSO and 10 μL of HDAC solution (concentration adjusted to 15–30% conversion) and filled up to 60 μL with assay buffer (50 mM Tris, 137 mM NaCl, 1 mM MgCl2, 2,7 mM KCl, 1 mg/ml BSA, pH = 8.0). The mixture was incubated at 37°C and 140 rpm for 1.5 h. For the stop solution Trichostatin A (3.3 μM) was used instead of nicotinamide. Fluorescence intensity was measured as described above. An enzyme free blank control and an AMC containing 100% control were performed as well and inhibition was calculated in % in relation to a DMSO control.

A further assay deals with T1, human Sirt3 (Homo sapiens, UniProt Q9NTG7).
T1 construct: Human Sirt3_118−395 was expressed and purified as described previously; made in house
T1 sequence (Q9NTG7 118-395): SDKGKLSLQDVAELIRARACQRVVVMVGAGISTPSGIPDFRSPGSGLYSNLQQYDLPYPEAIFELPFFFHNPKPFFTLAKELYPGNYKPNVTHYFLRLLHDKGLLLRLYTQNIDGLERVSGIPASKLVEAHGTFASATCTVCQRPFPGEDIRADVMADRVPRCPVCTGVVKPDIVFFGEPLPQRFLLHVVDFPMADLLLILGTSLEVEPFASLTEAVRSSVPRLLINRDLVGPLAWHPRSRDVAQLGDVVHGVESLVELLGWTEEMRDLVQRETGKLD
Nature of the assay: Homogeneous ZMAL-based fluorescence assay, Sirt3. The assay is classed as biochemical. To be noted: 4th round. As for the experimental part: Recombinant human Sirt5_37−310 was purchased readily in Tris Buffer [25 mM Tris, 100 mM NaCl, 5 mM DTT, 10% glycerol (v/v)] from Enzo Life Sciences (NY, USA). Human Sirt3_118−395 was expressed and purified as described previously ([54]). For expression of human Sirt1_134−747 and Sirt2_56−356 chemically competent cells of E. coli BL21 Star (DE3) were transformed with the expression vectors pET30S-hSirt1_134−747 or pET30S-hSirt2_56−356. Bacteria were grown at 37°C in 2×YT medium supplemented with 50 μg·mL^−1 of kanamycin to an OD600 of 0.6. Then isopropyl-β-D-1-thiogalactopyranoside (IPTG) was added to a final concentration of 1 mM to induce gene expression. After further cultivation at 20°C for 12 h, the cells were harvested by centrifugation for 15 min at 5,000 g. The cells were resuspended in lysis buffer [100 mM Tris/HCl buffer at pH 8.0, 150 mM NaCl and 10% (v/v) glycerol] and disrupted by ultrasonication (Branson Digital Sonifier 250) at 70% amplitude for 10 min (3 s working, 10 s pause). The crude extract was cleared by centrifugation at 100,000 g for 1 h, and the supernatant was loaded onto a Strep-Tactin Superflow cartridge (5 ml bed volume, IBA Lifescience, Germany). Target proteins were eluted with lysis buffer containing 5 mM D-Desthiobiotin (IBA Lifescience, Germany) and further separated by size-exclusion chromatography (Superdex S200 26/60, GE Healthcare, IL, USA) equilibrated in Tris/HCl buffer (20 mM, 150 mM NaCl, pH 8.0). Pure protein was concentrated by ultrafiltration, flash-frozen in liquid nitrogen and stored at −80°C until further use. Identity as well as purity were verified by SDS-PAGE ([55]) and protein concentration was determined by the bicinchoninic acid (BCA) method, using bovine serum albumin (BSA) as a standard ([56]). Deacetylase activity was confirmed to be NAD^+-dependent and could be inhibited with the physiological sirtuin inhibitor nicotinamide.
All compounds were tested in the trypsin-coupled high-throughput ZMAL-assay in black 96-well plates (OptiPlateTM−96F, black, 96 well, Pinch bar design, PerkinElmer, USA), using ZMAL (Z-Lys(acetyl)-AMC) as a substrate ([57]). Sirt1_134−747, Sirt2_56−356, and Sirt3_118−395 were mixed with 5 μL substrate (10.5 μM final assay concentration, diluted from a […] stock in DMSO) and 3 μL Inhibitor in DMSO at various concentrations or DMSO as a control [final DMSO concentration 5% (v/v)]. The mixture was supplemented with assay buffer (50 mM Tris/HCl, 137 mM NaCl, 2.7 mM KCl, 1 mM MgCL2, pH 8.0) to a total volume of 55 μL. Enzyme concentration was adjusted to get a final conversion of 20–30%. Addition of 5 μL NAD^+ (6 mM in assay buffer, final assay concentration of 500 μM) initiated the catalytic reaction and the plates were incubated at 37°C for 4 h with agitation at 140 rpm. The catalytic reaction was stopped by addition of 60 μL stop solution [50 mM Tris, 100 mM NaCl, 6.7% (V/V) DMSO, 5.5 U/μL trypsin, 8 μM nicotinamide, pH 8.0]. The plate was again incubated at 37°C and 140 rpm for 20 min to release free AMC from the deacetylated substrate by trypsin digestion. Afterwards, fluorescence intensity was measured in a microplate reader (λEx = 390 nm, λEm = 460 nm, BMG POLARstar Optima, BMG Labtech, Germany). An enzyme-free blank control and a 100% conversion control containing AMC instead of ZMAL were measured in addition. Inhibition was calculated in % in relation to a DMSO control after blank signal subtraction and IC50 values were determined using a non-linear regression to fit the dose-response curve with OriginPro 9G (OriginLab, USA). Pre-tests as well as IC50 determination was carried out at least twice in duplicates.

For another assay, the system named is HeLa cells. The experiment in a line: Wound healing assay with HeLa cells. The assay is classed as cell-based, human. The following applies: 24 h; S1th 13 12 μM. The protocol:
For wound healing assay 6 × 10^5 cells per well were seeded in 6-well plates and grown for 24 h in DMEM containing 10% FBS. After 24 h, a lineal gap between cells was created in the middle of the plate by scratching the cell monolayer with a 1 mL pipette tip in the same position in each well. Once the scratching is done, plates were washed twice with PBS and then grown in DMEM containing 1% FBS and the drugs in the same concentrations as for the proliferation assay. As described previously, the growth media 1% FBS containing the drugs was replaced every 48 h. Images were acquired in an Optimal microscope (Leica microscopes, DE) using Leica Application Suite X (LAS X) every 24 h (0, 24, 48, and 72 h) until the gap closed. The quantification of the area of the gap at the indicated times was performed with Image J-MRI Wound Healing Tool. The experiment was performed only once.

Chain of HDAC1 (Q13547 whole entry, species assumed): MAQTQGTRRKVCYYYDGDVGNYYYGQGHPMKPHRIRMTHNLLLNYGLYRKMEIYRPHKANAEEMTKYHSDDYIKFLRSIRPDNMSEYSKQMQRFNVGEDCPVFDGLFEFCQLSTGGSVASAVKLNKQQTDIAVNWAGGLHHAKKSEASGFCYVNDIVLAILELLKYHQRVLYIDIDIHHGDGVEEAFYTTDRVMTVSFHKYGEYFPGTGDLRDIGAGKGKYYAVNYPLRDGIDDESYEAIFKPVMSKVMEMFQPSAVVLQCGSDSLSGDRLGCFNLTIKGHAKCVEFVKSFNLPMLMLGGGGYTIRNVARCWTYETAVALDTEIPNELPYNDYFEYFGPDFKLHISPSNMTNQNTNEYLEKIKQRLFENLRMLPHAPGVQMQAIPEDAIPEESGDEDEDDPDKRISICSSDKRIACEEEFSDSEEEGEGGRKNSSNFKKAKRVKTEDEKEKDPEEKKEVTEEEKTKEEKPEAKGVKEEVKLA

For orientation: inhibition means the percentage by which the read-out fell short of the control. A high value points to a strong effect. `COc1ccc(SC#N)cc1OCC(=O)N(CCC#N)CCC#N` [S1th 12] gave an inhibition at 100 µM against HDAC1 below 10%. The molecule further displayed an inhibition at 50 µM at human Sirt3 below 10%.

The molecule `N#CSc1cccc(NC(=O)[C@H]2CC=CC[C@H]2C(=O)O)c1` [S1th 10] came in with an inhibition at 100 µM against HDAC1 below 10%. The same molecule displayed an inhibition at 50 µM against human Sirt3 below 10%.

`CCCCNC(=O)Nc1cccc(SC#N)c1` [S1th 11] displayed an inhibition at 100 µM at HDAC1 below 10%. For the same molecule, the inhibition at 50 µM on human Sirt3 was below 10%.

`N#CSc1cc(SC#N)c(N)nc1N` [PR-619, reference compound]: at HDAC1, at 100 µM the inhibition was 54% and the “residual activity HDAC1” value is listed as ~ 50%. This molecule registered an inhibition at 50 µM on human Sirt3 below 10%.

Regarding `N#CSc1cccc(NS(=O)(=O)c2ccc3c(c2)OCCO3)c1` [S1th 13], the inhibition at 100 µM at HDAC1 is below 10%. The “lower reduction of total wound area compared to control without drug” value in the assay on HeLa cells is ~ 50%. In addition, the inhibition at 50 µM at human Sirt3 is below 10%.
